Data on three molecules can be found in patent publication US8119640B2, “Hedgehog pathway antagonists methods of use” (The Board of Trustees of the Leland Stanford Junior …, priority 2008, dated 2012).

One assay has as its system MAPK. Conditions: NIH-3T3 cells, 10 μM U0126.
Another assay addresses Smo (Mus musculus, UniProt P56726). Nature of the assay: FRET assay for Smo multimerization (Smo-CFP/Smo-YFP). The class given is cell-based, murine. Conditions: 10 μM cyclopamine, 500 nM SAG, 10 μM HPIs. Set-up: expressed in transfected cells; host or cells: NIH-3T3. As for the experimental part:
FRET assay for Smo multimerization. […] The cells were washed with PBS buffer, fixed with 4% paraformaldehyde for 20 min, and mounted on slides in 80% glycerol. Fluorescence signals were acquired with the 100× objective of a Zeiss LSM510 confocal microscope with the following conditions: CFP was excited by 458-nm light and the emission was collected through a BP 480-520-nm filter. YFP was excited by 514-nm light and the emission was collected through a BP 535-590-nm filter. The CFP signal was obtained before and after photobleaching YFP(CFPBP and CFPAP, respectively) using the full power of the 514-nm laser line for 1-2 min at the top half of each cell, leaving the bottom half unbleached as an internal control. The CFP fluorescence intensity was analyzed using Metamorph software (Universal Imaging Corp.), and the energy transfer efficiency was calculated using the formula: FRET %=((CFPAP−CFPBP)/CFPAP)×100. Photobleached areas in 11-19 cells were analyzed for each experimental condition.

Assay [1] deals with Hh pathway. Conditions: β-galactosidase reporter.
Procedure: Ptch1^−/− fibroblast assay for Hh pathway activation Hh pathway activation in Ptch1^−/− fibroblasts was assayed as previously described, using the knocked-in β-galactosidase gene as a reporter for Hh target gene expression. Ptch1^−/− fibroblasts were grown to 70-80% confluence in a 15-cm dish, trypsinized, and then resuspended in 40 mL of DMEM containing 10% FBS, 100 U/mL penicillin, and 0.1 mg/mL DMSO. This cell suspension was aliquoted into 96-well plates (150 μL/well), cultured overnight, and then treated with DMSO or various concentrations of the HPIs for 28 h. […] The cells were then lysed in Tropix lysis solution (30 μL/well; Applied Biosystems) and β-galactosidase levels were quantified by a Tropix Galacto-Star kit (Applied Biosystems) on a Veritas microplate luminometer.
In a further assay the test system is FLAG-Gli2. Nature of the assay: Analysis of Gli2 processing and Shh-dependent Gli2 stabilization. The class given is cell-based, mouse. Conditions: Shh-EGFP FLAG-Gli2 cells, absence and presence of Shh, 24 h. As for the experimental part:
Analysis of Gli2 processing and Shh-dependent Gli2 stabilization. […] Each compound incubation was also done in the absence and presence of 5% Shh-N-conditioned medium, and the cells were maintained under these conditions for 24 h. The cells were subsequently solubilized in lysis buffer (100 μL/well; 50 mM Tris-HCl, pH 7.4, 1% Triton X-100, 250 mM NaCl, 2 mM EDTA, 20 mM NaF, 2 mM Na3VO4, 2 mM 2-mercaptoethanol, EDTA-free protease inhibitor cocktail (Roche)). This suspension was transferred to a 1.5-mL centrifuge tube and incubated on ice for 30 min, with vortexing every 5 min. The cell lysates were then centrifuged at 20,000×g at 4° C. for 20 min. Supernatants were removed, and a BCA protein assay was performed to quantify protein levels. Mouse anti-FLAG M2 agarose slurry (20 μL, Sigma) was pelleted by centrifugation and incubated with 800 ng of protein from each condition for 90 min at 4° C. and then washed three times with 1 mL of wash buffer (75 mM Tris-HCl buffer, pH 8.0 containing 225 mM NaCl, 0.5% Triton X-100) and centrifuged at 2,300×g at 4° C. The agarose beads were suspended in 30 μL of 1×SDS-PAGE sample buffer (50 mM Tris-HCl, pH 6.8 containing 10% glycerol, 2% SDS, 50 mM DTT, 200 mM 2-mercaptoethanol, and 0.001% bromophenol blue), and the mixture was boiled for 5 min. The samples were then resolved on a 4-12% Bis-Tris Criterion XT gel and transferred to a PVDF membrane. The membrane was dehydrated with methanol, and then probed with rabbit anti-FLAG antibody (Sigma; 1:1,000 dilution in blocking buffer (PBS 21 containing 3% non-fat dried milk and 0.01% Tween 20)) for 90 min. […] Blots were washed 4×3 min in PBS, and the immunoreactive bands were detected with a SuperSignal West Dura kit and a ChemiDoc XRS system. Protein bands were quantified using Quantity One software (Bio-Rad). For each experiment, boxes of equal size were drawn around the FLAG-Gli2 and FLAG-Gli2R bands. Band intensities were then normalized to the average intensity for all bands in a given experiment. The results from all experiments were averaged and normalized relative to the basal level of FLAG-Gli2 (DMSO treatment without Shh-N-conditioned medium).

Assay [2] deals with Hh pathway. Kind of assay: Shh-LIGHT2 assay for Hh pathway activation (Gli-dependent firefly luciferase). The class given is cell-based. The conditions noted are these: 0.5 μM SAG versus Shh. The method, then: Shh-LIGHT2 assay for Hh pathway activation and library screening conditions. h-N-conditioned medium was prepared as previously described. […] For 96-well plate assays, Shh-LIGHT2 cells were seeded into each plate (10,000 cells/well) and cultured to confluency. The Shh-LIGHT2 cells were then grown in DMEM containing 0.5% CS, 100 U/mL penicillin, 0.1 mg/mL streptomycin, either 5% Shh-N-conditioned medium or 500 nM SAG, and various concentrations of the HPIs. After the cells were cultured for another 30 h, the resulting firefly and Renilla luciferase activities were measured using a Dual Luciferase Reporter kit (Promega) and a Veritas microplate luminometer (Turner Biosystems).
When the cells reached >90% confluency, they were removed by trypsinization and diluted to a final volume of 50 mL medium. This cell suspension was then plated into clear-bottom, white-walled 384-well plates using a Titertek Multidrop dispenser (50 μL/well) and the cells were cultured until they reached confluency (3-4 days). […] The plates were then placed into an automated Staccato system (Caliper Life Sciences), which includes an automated CO2 incubator. An automated protocol was then run, in 3 which a Multidrop dispenser added 10 μL of a SAG solution in 0.5% CS medium (final SAG concentration of 500 nM) to columns 1-22 and 100 nL of each compound solution was added to the plates using a V&P Scientific pin tool, resulting in a final compound screening concentration of 10 μM. The SAG-free wells were used as negative controls. After 28-32 h, the assay medium was manually removed and the plates were frozen. To assay the firefly luciferase activities, the plates were thawed and placed into a Twister II stacker in the Staccato system. Bright-Glo luciferase substrate (Promega) was added by the Multidrop dispenser and the plates were analyzed on an Analyst GT microplate reader (2 min in the dark, 0.2 sec integration/well; Molecular Devices). Hits were defined as compounds that reduce the firefly luciferase signal by at least 50% compared to inhibitor-free controls. Primary hits were then re-tested in duplicate in an eight-point, 1:1 serially diluted doseresponse curve with a starting concentration of 20 μM. In these experiments, the median inhibitory concentration (IC50) for both firefly and Renilla luciferase were determined using a Dual-Glo kit (Promega).

Assay [3] has as its system Hh pathway.
Procedure: SmoM2-LIGHT assay for Hh pathway activation. SmoM2-LIGHT cells (previously named SmoA1-LIGHT cells) were grown to 70-80% confluence in a 15-cm dish, trypsinized, and then resuspended in 40 mL of DMEM containing 10% FBS, 100 U/mL penicillin, and 0.1 mg/mL DMSO. This cell suspension was aliquoted into 96-well plates (150 μL/well), cultured overnight, and then treated with DMSO or various concentrations of the HPIs for 28 h. Cells were then washed once with PBS then treated with 50 μL of passive lysis buffer (Promega). Hh pathway-dependent firefly luciferase activity in the lysates was quantified using Bright-Glo reagent and a Veritas microplate luminometer. Constitutive β-galactosidase activity was measured using the Tropix Galacto-Star kit.
The next assay concerns C3H10T(1/2) cells. Kind of assay: C3H10T(1/2) assay for Hh pathway activation (alkaline phosphatase). The class given is cell-based. The method, then: C3H10T(1/2) assay for Hh pathway activation. C3H10T(1/2) cells (ATCC) were plated into 96-well plates using DMEM containing 10% FBS, 100 U/mL penicillin, 0.1 mg/mL streptomycin, 5% Shh-N-conditioned medium, and various concentrations of the Hh pathway inhibitors. After approximately 40 h, the cells were washed with PBS and lysed in 50 μL of buffer containing 50 mM Tris-HCl, pH 9.5, 150 mM NaCl, 5 mM MgCl2, and 1% Triton X-100. Alkaline phosphatase activities in the cell lysates were quantified by adding 10 μL of the lysate to 50 μL of CDP-Star chemiluminescence reagent (Perkin Elmer) and measuring the resulting chemiluminescence on a Veritas microplate luminometer.

Assay [4] has as its system Hh pathway. Nature of the assay: Shh-EGFP assay for Hh pathway activation. The class given is cell-based. The conditions noted are these: 3 μM cyclopamine; 15 μM HPI-1, 20 μM HPI-2, 30 μM HPI-3, 30 μM HPI-4. As for the experimental part: Shh-EGFP assay for Hh pathway activation. A Gli-dependent enhanced green fluorescent protein reporter (Shh-EGFP) was generated by excising firefly luciferase cDNA from the 8XGliBs vector using NcoI/Hpal, and ligating in EGFP cDNA excised from the pEGFP-C1 vector (Clontech) by NcoI/Af/II digestion. […] The cells were grown to confluency and treated with DMEM containing 0.5% CS, 100 U/mL penicillin, 0.1 mg/mL streptomycin, and 5% Shh-N-conditioned medium for 30 h. Following Shh-N treatment, the adherent cultures were dissociated into single cells with 0.05% Trypsin-EDTA (300 μL/well; Invitrogen) for 5 min. The cells were then suspended in 1 mL of PBS containing 1% CS and sorted on a BD FACSAria (excitation: 488 nm; emission: 530/30 nm) to enrich for cells expressing EGFP in a Shh-N-responsive manner. […] To identify Shh-EGFP clones with maximum Shh-N-responsiveness, individual lines were seeded into 24-well plates (45,000 cell/well) and cultured for 48 h. The cells were then treated with DMEM containing 0.5% CS, 100 U/mL pencillin, 0.1 mg/mL streptomycin or the culture medium plus 5% Shh-N-conditioned medium. After 30 h, the adherent cultures were treated with 0.05% trypsin-EDTA (150 μL/well; Invitrogen) for 5 min to dissociate them into single cells. The cells were then resuspended in 500 μL of PBS containing 1% CS and analyzed on a BD FACSCalibur (excitation: 488 nm; emission: 530/30 nm). 10,000 cells were used to assess EGFP expression levels as a measure of Hh pathway activation, and the data was analyzed using FlowJo software (Tree Star). Clones with low basal EGFP levels and maximum Shh-Ninduced EGFP expression were selected for further use. To assess the inhibitory activities of the HPIs in the Shh-EGFP cells, a clonal line with maximum Shh-responsiveness was cultured in 24-well plates as described above. […] The resulting EGFP levels were then evaluated by FACS and quantified using the FlowJo software.

Chain of Smo (P56726 33-793): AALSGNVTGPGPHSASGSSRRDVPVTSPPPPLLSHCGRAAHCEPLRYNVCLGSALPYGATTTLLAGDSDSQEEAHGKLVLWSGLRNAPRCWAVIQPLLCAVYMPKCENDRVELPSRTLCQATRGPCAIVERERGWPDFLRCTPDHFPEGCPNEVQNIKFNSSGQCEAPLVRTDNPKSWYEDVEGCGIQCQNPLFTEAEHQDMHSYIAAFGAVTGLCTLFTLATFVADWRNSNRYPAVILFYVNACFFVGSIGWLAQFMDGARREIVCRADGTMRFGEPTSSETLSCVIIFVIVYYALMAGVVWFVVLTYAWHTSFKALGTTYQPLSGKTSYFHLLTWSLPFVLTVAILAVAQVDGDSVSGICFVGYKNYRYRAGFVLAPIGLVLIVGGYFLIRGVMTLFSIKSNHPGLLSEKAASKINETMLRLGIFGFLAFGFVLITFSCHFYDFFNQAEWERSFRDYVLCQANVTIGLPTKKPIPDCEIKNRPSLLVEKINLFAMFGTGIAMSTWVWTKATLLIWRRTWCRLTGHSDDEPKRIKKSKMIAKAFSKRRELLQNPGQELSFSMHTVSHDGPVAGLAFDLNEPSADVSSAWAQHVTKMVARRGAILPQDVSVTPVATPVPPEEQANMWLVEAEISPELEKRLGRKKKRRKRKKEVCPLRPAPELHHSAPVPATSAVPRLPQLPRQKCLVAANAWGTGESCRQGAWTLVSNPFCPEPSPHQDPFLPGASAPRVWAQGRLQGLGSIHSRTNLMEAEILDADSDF
Chain of Smo (P56726 33-793): as above
Procedure for MAPK: NIH-3T3 cells were seeded into 6-well plates and grown to 80% confluency in DMEM containing 10% CS, 100 U/mL penicillin, and 0.1 mg/mL streptomycin. Cells were then serumstarved for 8 h in DMEM containing 0.5% CS and either DMSO, 15 μM HPI-1, 20 μM HPI-2, 30 μM HPI-3, or 30 μM HPI-4. 50 μM LY294002 and 10 μM U0126 were used as positive controls. After serum starvation, cells were stimulated with 10 ng/ml PDGF BB for 30 min, washed in PBS, and lysed in buffer containing 50 mM Tris HCl pH 7.4, 250 mM NaCl, 20 mM NaF, 2 mM sodium orthovanadate, 2 mM EDTA, 2 mM PMSF, 1% Triton X-100, and EDTA free protease inhibitor cocktail (Roche). Cell lysates were clarified by centrifugation at 20,000×g and total protein concentrations were determined by the BCA assay (Pierce). 15 μg of protein from each lysate was mixed with 6×SDS-PAGE sample buffer (300 mM Tris-HCl, pH 6.8 containing 60% glycerol, 12% SDS, 600 mM DTT, and 0.05% bromophenol blue), boiled for 17 5 min and then resolved on 4-12% Bis-Tris Criterion XT gels. The electrophoresed samples were transferred to PVDF membranes and blocked overnight in TBST buffer containing 5% BSA. […]

`N#CC(=C(/N)Sc1ccccc1N)/C(C#N)=C(\N)Sc1ccccc1N` [Compound U0126]: the “PDGF-induced phosphorylation of p44/p22 MAPK” value in the assay on MAPK was “blocked p44/p22 MAPK phosphorylation”.

With `CNC1CCC(N(Cc2cccc(-c3ccncc3)c2)C(=O)c2sc3ccccc3c2Cl)CC1` (centres unmarked) [SAG, reference compound], the “Shh-induced fold change in Smo-CFP/Smo-YFP FRET” value on Smo was “Shh-insensitive”.

With `CC1=C2C[C@H]3[C@@H](CC=C4C[C@@H](O)CC[C@@]43C)[C@@H]2CC[C@]12O[C@@H]1C[C@H](C)CN[C@H]1[C@H]2C` [cyclopamine, reference compound], the “Inhibition of Hh pathway activity in Ptch1-/- fibroblasts” value with Hh pathway [1] is reported as “inhibit Hh pathway activity”. Besides, the “FLAG-Gli2 levels and processing (immunoblotting)” value in the assay on FLAG-Gli2 is reported as “can suppress the effects of Shh”. In the assay on Hh pathway [2], the “Inhibition of Hh pathway activation induced by 0.5 μM SAG” value is “resistant to inhibition”. Further, in the assay with Hh pathway [3], the “Inhibition of SmoM2-dependent Gli reporter expression in SmoM2-LIGHT cells” value is on record as “significantly less potent”. For the same molecule, the “Block of Shh-induced differentiation of C3H10T(1/2) cells into osteoblasts” value in the assay on C3H10T(1/2) cells is recorded as “block the Shh-induced differentiation”. The “Fluorescence intensity of Shh-treated Shh-EGFP cells (FACS, words)” value in the assay with Hh pathway [4] is “fluorescence intensities similar to those of untreated cells”.
